Patent publication US20240280589A1, “USE OF FIBRONECTIN IN PREDICTING PREECLAMPSIA” (Sinai Health System, priority 2023, published 2024)

Legend:
Type in all cases: cell-based, human
JEG3 cells [1] = test: Western blot for fibronectin in sEVs from JEG3 cell conditioned media
Description: Subsequent Western blotting was performed.

[2] = test system: placental villous explants; test: Fibronectin in sEVs from placental villous explant culture; details: E-PE villous explants maintained at 3% O2, Hinokitiol
Description: Villous explants were isolated and cultured in 12-well plates with mesh inserts, from term control (n=3) and E-PE placentae (n=3). Term explants were maintained at normoxia (8% O2) or hypoxia (3% O2), while E-PE explants were maintained at 3% O2 (constituting their normoxia) and treated with […] Hinokitiol. Following incubation with their respective treatments, explant tissue was snap-frozen in liquid nitrogen for protein extraction and downstream analyses, while small extracellular vesicles (sEVs) were isolated from conditioned media by ultrafiltration using Amicon® Ultra-4 Centrifugal Filter Units (UFC8100, Millipore Sigma). […] Subsequent Western blotting was performed.

JEG3 cells [3] = test: Immunofluorescence co-localization of fibronectin with CD63/RAB7 in JEG3 cells
preeclampsia pMSCs = test: Exposure of preeclampsia placental mesenchymal stromal cells (pMSCs)

## CC(C)c1cccc(=O)c(O)c1 [Hinokitiol]
JEG3 cells [1]; JEG3 cells at 3% O2, 24 hours, 1 μM, normalized to CD63
  sEV fibronectin content: significantly reduced sEV fibronectin content to control levels
JEG3 cells [1]; JEG3 cells at 21% O2
  sEV fibronectin levels: no discernible effect
[2]
  fibronectin increase in explant-derived sEVs: attenuated
JEG3 cells [3]; 3% O2 + 1 μM Hinokitiol
  Pearson's Correlation Coefficient between fibronectin and CD63: 0.31
JEG3 cells [3]; 3% O2, relative to hypoxia alone
  fibronectin co-localization with late endosomal marker RAB7 and sEV marker CD63: attenuated fibronectin co-localization
Preeclampsia pMSCs
  fibronectin fibrillar deposition: improved
  labile (useable) intracellular iron pool: restored
